Patent US20050032822A1, “Dithiocarbamate derivatives and their use as antibacterial agents” (priority 2001, published 2005)
In brackets after ≈: the same amount, converted by molar mass.

System: M. tuberculosis H37Rv and two drug-resistant clinical isolates
Assay: MIC and MBC against M. tuberculosis in liquid Shkolnikova medium / Lowenstein-Jensen medium
Assay type: cell-based, Mycobacterium tuberculosis
Conditions: for MIC (minimal inhibitory concentration) against Mycobacterium tuberculosis: mean values of the three strains (H37Rv and two drug-resistant clinical isolates), 14 days at 37° C.; for MBC (minimal bactericidal concentration) against Mycobacterium tuberculosis: mean values of the three strains, read after 21-28 days on solid drug free Lowenstein-Jensen medium

Compound | MIC (minimal inhibitory concentration) against Mycobacterium tuberculosis [µg/mL] | MBC (minimal bactericidal concentration) against Mycobacterium tuberculosis [µg/mL]
4-isopropylamino-6-diethyldithiocarbamoyl-5-nitropyrimidine [Subst. Nr. 1] | 31.3 | 100.0
CCN(CC)C(=S)Sc1ncnc(NC2CC2)c1[N+](=O)[O-] [Subst. Nr. 2, 4-cyclopropylamino-6-diethyldithiocarbamoyl-5-nitropyrimidine] | 20.8 (≈ 63.5 µM) | 29.1 (≈ 88.9 µM)
CCN(CC)C(=S)Sc1c(C#N)cc([N+](=O)[O-])cc1[N+](=O)[O-] [Subst. Nr. 3, 3,5-dinitro-2-diethyldithiocarbamoylbenzonitril] | 5.37 (≈ 15.8 µM) | 7.29 (≈ 21.4 µM)
CCN(CC)C(=S)Sc1ncnc(NC)c1[N+](=O)[O-] [Subst. Nr. 4, 4-methylamino-6-diethyldithiocarbamoyl-5-nitropyrimidine] | 6.25 (≈ 20.7 µM) | 12.5 (≈ 41.5 µM)
CCN(CC)C(=S)Sc1ncnc(N(C)O)c1[N+](=O)[O-] [Subst. Nr. 5, 4-methylhydroxyamino-6-diethyldithiocarbamoyl-5-nitropyrimidine] | 9.38 (≈ 29.6 µM) | 12.5 (≈ 39.4 µM)
CCOc1nc(C)nc(SC(=S)N(CC)CC)c1[N+](=O)[O-] [Subst. Nr. 6, 4-ethoxy-2-methyl-6-diethyldithiocarbamoyl-5-nitropyrimidine] | 20.8 (≈ 62.9 µM) | 41.7 (≈ 126 µM)
CNc1ncnc(SC(=S)N(C)C)c1[N+](=O)[O-] [Subst. Nr. 7, 4-methylamino-6-dimethyldithiocarbamoyl-5-nitropyrimidine] | 7.78 (≈ 28.5 µM) | 10.42 (≈ 38.1 µM)
CN(C)C(=S)Sc1ncnc(N(C)C)c1[N+](=O)[O-] [Subst. Nr. 8, 4-dimethylamino-6-dimethyldithiocarbamoyl-5-nitropyrimidine] | 7.81 (≈ 27.2 µM) | 12.5 (≈ 43.5 µM)
CN(C)C(=S)Sc1c(C#N)cc([N+](=O)[O-])cc1[N+](=O)[O-] [Subst. Nr. 9, 3,5-dinitro-2-dimethyldithiocarbamoylbenzonitrile] | 4.78 (≈ 15.3 µM) | 6.25 (≈ 20 µM)
CCOc1nc(C)nc(SC(=S)N2CCCC2)c1[N+](=O)[O-] [Subst. Nr. 10, 4-ethoxy-2-methyl-6-tetramethylenedithiocarbamoyl-5-nitropyrimidine] | 5.21 (≈ 15.9 µM) | 8.33 (≈ 25.4 µM)
CCCOc1ncnc(SC(=S)N(C)C)c1[N+](=O)[O-] [Subst. Nr. 11, 4-propoxy-6-dimethyldithiocarbamoyl-5-nitropyrimidine] | 9.37 (≈ 31 µM) | 12.5 (≈ 41.3 µM)
CNc1ncnc(SC(=S)N2CCCC2)c1[N+](=O)[O-] [Subst. Nr. 12, 4-methylamino-6-tetramethylenedithiocarbamoyl-5-nitropyrimidine] | 3.64 (≈ 12.2 µM) | 8.33 (≈ 27.8 µM)
CN(C)c1ncnc(SC(=S)N2CCCC2)c1[N+](=O)[O-] [Subst. Nr. 13, 4-dimethylamino-6-tetramethylenedithiocarbamoyl-5-nitropyrimidine] | 3.12 (≈ 9.96 µM) | 6.25 (≈ 19.9 µM)
